In test [1] the test system is C57BL/6J mice. The test is described as follows: Ischemic lesion / infarct size by TTC staining after middle cerebral artery occlusion (MCAo). The test is classed as in vivo, mouse. The source says:
Mice will receive bilateral ovariectomy (OVX) using a dorsal approach under isoflurane anesthesia. A small cut is made through skin and abdominal muscles in left and right lateral abdomen. The arteries to left and right ovaries will be ligated, and ovaries will be cut. The muscles and skin will be sutured with 4-0 Vicryl absorbable suture.
Fused steroid pellets will be made using the flash-melt method described by Ratka and Simpkins. The pellets (containing P4 or control) will be implanted subcutaneously into abdominal area.
MCAo will be used to induce transient focal cerebral ischemia (as previously described). Briefly, under isoflurane anesthesia, a mid line incision will be made on the neck. Common carotid artery (CCA), external carotid artery (ECA) and internal carotid artery (ICA) will be dissected from the connective tissue. A silicon coated 6-0 nylon monofilament will be inserted into the left ECA and advanced till it occludes the origin of MCA. The MCA will be occluded for 60 minutes and then reperfusion attained by withdrawing the suture.
ICV injections will be performed as described by Sananbenesi et al.. In brief, mice will be anaesthetized and affixed with a cannula ipsilateral to the side of surgery (coordinates from Bregma: AP1/4_0.4 mm, L1/4_1.15 mm, V1/4_2.0 mm). […]

Test [2] deals with primary cortical astrocytes. As to conditions: 10 nM P4; reported in reference (10); cited from earlier work.

The structures appear in SMILES notation.

Consider `CC(=O)[C@H]1CC[C@H]2[C@@H]3CCC4=CC(=O)CC[C@]4(C)[C@H]3CC[C@]12C` [P4, progesterone], for which the “stroke-induced lesion size (ischemic injury), TTC stain” value in test [1] (Example 1, MCAo mice, P4 pellet, ICV Let-7i antagomir, FIG. 6) is on record as “no statistically significant effect”. Moreover, in test [1] (Example 2, 24 h after MCAo, vs cholesterol+scrambled, FIG. 12B), the “relative infarct size (ischemic injury), TTC staining” value was “did not”. In addition, the “release of BDNF from astrocytes” value in test [2] was “maximal release of BDNF”.

The values above are taken from patent publication US11230711B2, “Inhibition of LET7I as a means to enhance the protective effect of progesterone against stroke” (UNIVERSITY OF NORTH TEXAS HEALTH SCIENCE CENTER, priority 2017, dated 2022).
